# Patent US20240425464A1, “Substituted Monohydrazides as Potent Antifungal Agents” (University of Kentucky Research Foundation, priority 2023, published 2024)
# Read-outs that look alike come from different tables or passages of the source.
# Legend:
# Assay type in all cases: cell-based, Candida albicans
# [1] = tested on: C. albicans ATCC 10231 (strain A); experiment: MIC determination by in vitro antifungal assay (CLSI broth dilution); details: strain A = C. albicans ATCC 10231, no visible growth, 48 h at 35° C.
# Method: (§1) 10 mg/mL stock solutions of compounds 1a-9j were prepared in dimethyl sulfoxide (DMSO) and were stored at −20° C. in the dark. The antifungal agent amphotericin B (AmB) was purchased from VWR (Radnor PA, USA). AmB was dissolved in DMSO at a final concentration of 5 mg/mL and was stored at −20° C., protected from light. Candida albicans American Type Culture Collection (ATCC) 10231 (strain A), C. albicans ATCC 64124 (B), and C. albicans ATCC MYA-2876 (C) were obtained from Utah State University. C. albicans ATCC 90819 (D), C. albicans ATCC MYA-2310 (E), C. albicans ATCC MYA-1237 (F), C. albicans ATCC MYA-1003 (G), Candida glabrata ATCC 2001 (H), Candida krusei ATCC 6258 (I), Candida parapsilosis ATCC 22019 (J), Cryptococcus neoformans ATCC MYA-895 (M), Aspergillus terreus ATCC MYA-3633 (N), and Aspergillus flavus ATCC MYA-3631 (0) were obtained from the American Type Culture Collection (ATCC; Manassas, VA, USA). Aspergillus nidulans ATCC 38163 (P) was obtained from University of Kentucky. Clinically derived Aspergillus fumigatus NRRL 163 (Q), A. fumigatus NRRL 5109 (R), and A. fumigatus NRRL 6113 (S) were obtained from Northern Regional Research Laboratory (NRRL). Candida auris 384 (K), C. auris 390 (L), and fungal strains 381-400 (including 10 C. auris (AR Bank #381-390), 3 Candida duobushaemulonii (AR Bank #391, AR Bank #392, and AR Bank #394), 2 Candida haemulonii (AR Bank #393 and AR Bank #395), 1 Kodameae ohmeri (AR Bank #396), 1 C. krusei (AR Bank #397), 1 Candida lusitaniae (AR Bank #398), and 2 Saccharomyces cerevisiae strains (AR Bank #399 and AR Bank #400)) were part of a larger fungal library from the AR Bank maintained by the Centers for Disease Control and Prevention (CDC; Atlanta, GA, USA). Filamentous fungi and yeasts were cultivated at 35° C. in RPMI 1640 medium (with L-glutamine, without sodium bicarbonate, Sigma-Aldrich, St. Louis, MO) buffered to a pH of 7.0 with 0.165 M morpholinepropanesulfonic acid (MOPS) buffer (Sigma-Aldrich). For cytotoxicity assays, HepG2 and the mouse macrophage cell line J774A.1 were obtained from University of Kentucky. The human embryonic kidney cell line, HEK-293, was bought from the ATCC. Mammalian cells were grown in Dulbecco's Modified Eagle's Medium (DMEM) (from VWR) with 10% fetal bovine serum (FBS) (from VWR) and 1% Pen/Strep (from ATCC). Cell lines were cultured at 37° C. with 5% CO2 and passaged by trypsinization with 0.05% trypsin: 0.53 mM EDTA (from Sigma-Aldrich).
# (§2) The MIC values of compounds 1a-9j against yeast cells (strains A-P and 381-400) were determined in 96-well plates as described in the CLSI documents M27-A3 and M38-A2 with minor modifications.^2 A single colony of freshly prepared yeast cells was used to inoculate 5 mL of yeast extract peptone dextrose (YPD) broth prior to incubation overnight with shaking at 200 rpm at 35° C. From the actively growing yeast culture, 100 µL were then transferred to 900 μL of RPMI 1640 medium and re-adjusted to achieve OD600 of 0.12 (˜1×10^6 CFU/mL). The cell suspension was further diluted to achieve 1:100 in RPMI 1640 medium. 100 μL of cells were added to the wells of a 96-well microtiter plates that contained 100 µL of the compound solution to obtain concentrations of 0.06-31.3 μg/mL of compounds 1a-9j or AmB prior to incubation for 48 h at 35° C. […]
# [2] = tested on: C. albicans ATCC 64124 (B); experiment: MIC determination by in vitro antifungal assay
# Method: as §1, §2
# [3] = tested on: C. albicans ATCC 90819 (D); experiment: MIC determination by in vitro antifungal assay
# Method: as §1, §2
# [4] = tested on: C. albicans ATCC MYA-1003 (G); experiment: MIC determination by in vitro antifungal assay; details: strain G = C. albicans ATCC MYA-1063(R) (footnote), MYA-1003 in text
# Method: as §1, §2
# [5] = tested on: C. albicans ATCC MYA-1237 (F); experiment: MIC determination by in vitro antifungal assay; details: strain F = C. albicans ATCC MYA-1237(R)
# Method: as §1, §2
# [6] = tested on: C. albicans ATCC MYA-2310 (E); experiment: MIC determination by in vitro antifungal assay; details: strain E = C. albicans ATCC MYA-2310
# Method: as §1, §2
# [7] = tested on: C. albicans ATCC MYA-2876 (C); experiment: MIC determination by in vitro antifungal assay; details: strain C = C. albicans ATCC MYA-2876(S)
# Method: as §1, §2
# [8] = Candida albicans, ATCC10231, 48 h, read-out: MIC
# [9] = Candida albicans, ATCC64124, strain B = C. albicans ATCC 64124, read-out: MIC
# [10] = Candida albicans, ATCC90819, strain D = C. albicans ATCC 90819(R), read-out: MIC
# [11] = Candida albicans, read-out: MIC
# [12] = strain B = C. albicans ATCC 64124
# [13] = strain D = C. albicans ATCC 90819(R)
Structure (SMILES),"MIC [1, 8]","MIC [2, 9]","MIC [3, 10]","MIC [4, 11]","MIC [5, 11]","MIC [6, 11]","MIC [7, 11]",MIC [1],"MIC [2, 12]","MIC [3, 13]",MIC [4],MIC [5],MIC [6],MIC [7]
O=C(NNc1ccc(F)cc1)c1cccc(Br)n1 [Compound 6d],0.98 µg/mL,1.95 µg/mL,3.9 µg/mL,1.95 µg/mL,3.9 µg/mL,3.9 µg/mL,3.9 µg/mL,–,–,–,–,–,–,–
O=C(NNc1cccc(F)c1)c1ccc(F)cn1 [Compound 3a],–,–,–,–,–,–,–,0.49 μg/mL^−1,0.49 μg/mL^−1,3.9 μg/mL^−1,1.95 μg/mL^−1,3.9 μg/mL^−1,3.9 μg/mL^−1,3.9 μg/mL^−1
O=C(NNc1ccc(Cl)cc1)c1ccccn1 [Compound 2e],–,–,–,–,–,–,–,0.12 μg/mL^−1,0.98 μg/mL^−1,0.24 μg/mL^−1,0.98 μg/mL^−1,0.98 μg/mL^−1,0.98 μg/mL^−1,1.95 μg/mL^−1
O=C(NNc1cc(F)cc(F)c1)c1cnccn1 [Compound 9i],0.24 µg/mL,3.9 µg/mL,3.9 µg/mL,1.95 µg/mL,1.95 µg/mL,15.6 µg/mL,7.8 µg/mL,–,–,–,–,–,–,–
COc1cccc(NNC(=O)c2ccc(F)cn2)c1 [Compound 3c],–,–,–,–,–,–,–,0.24 μg/mL^−1,0.95 μg/mL^−1,3.9 μg/mL^−1,0.98 μg/mL^−1,1.95 μg/mL^−1,1.95 μg/mL^−1,0.49 μg/mL^−1
COc1ccc(NNC(=O)c2cccc(Br)n2)cc1 [Compound 6f],1.95 µg/mL,3.9 µg/mL,3.9 µg/mL,3.9 µg/mL,0.98 µg/mL,3.9 µg/mL,1.95 µg/mL,–,–,–,–,–,–,–
O=C(NNc1cc(Cl)cc(Cl)c1)c1ccc(F)cc1F [Compound 1j],3.9 µg/mL,> 31.3 µg/mL,> 31.3 µg/mL,7.8 µg/mL,15.6 µg/mL,> 31.3 µg/mL,> 31.3 µg/mL,–,–,–,–,–,–,–
O=C(NNc1ccc(F)cc1)c1ccccn1 [Compound 2d],0.12 µg/mL,0.98 µg/mL,0.98 µg/mL,0.49 µg/mL,1.95 µg/mL,1.95 µg/mL,3.9 µg/mL,–,–,–,–,–,–,–
COc1ccc(NNC(=O)c2cnccn2)cc1 [Compound 9f],0.49 µg/mL,0.98 µg/mL,0.98 µg/mL,1.95 µg/mL,0.98 µg/mL,1.95 µg/mL,1.95 µg/mL,–,–,–,–,–,–,–
O=C(NNc1ccc(F)cc1)c1cccc(F)n1 [Compound 5d],0.24 µg/mL,0.98 µg/mL,1.95 µg/mL,0.98 µg/mL,1.95 µg/mL,3.9 µg/mL,1.95 µg/mL,–,–,–,–,–,–,–
O=C(NNc1ccc(F)cc1F)c1cnccn1 [Compound 9g],0.24 µg/mL,0.98 µg/mL,0.98 µg/mL,0.49 µg/mL,0.49 µg/mL,3.9 µg/mL,0.98 µg/mL,–,–,–,–,–,–,–
O=C(NNc1cccc(F)c1)c1cnccn1 [Compound 9a],–,–,–,–,–,–,–,0.24 μg/mL^−1,1.95 μg/mL^−1,0.98 μg/mL^−1,0.98 μg/mL^−1,0.98 μg/mL^−1,7.8 μg/mL^−1,3.9 μg/mL^−1
O=C(NNc1cc(Cl)cc(Cl)c1)c1ccccn1 [Compound 2j],0.24 µg/mL,1.95 µg/mL,0.98 µg/mL,1.95 µg/mL,3.9 µg/mL,1.95 µg/mL,1.95 µg/mL,–,–,–,–,–,–,–
O=C(NNc1ccc(F)cc1)c1ccc(F)cn1 [Compound 3d],–,–,–,–,–,–,–,0.49 μg/mL^−1,1.95 μg/mL^−1,1.95 μg/mL^−1,1.95 μg/mL^−1,1.95 μg/mL^−1,3.9 μg/mL^−1,3.9 μg/mL^−1
COc1ccc(NNC(=O)c2ccc(Br)cn2)cc1 [Compound 4f],3.9 µg/mL,3.9 µg/mL,3.9 µg/mL,1.95 µg/mL,0.98 µg/mL,3.9 µg/mL,1.95 µg/mL,–,–,–,–,–,–,–
O=C(NNc1cccc(F)c1)c1ccccn1 [Compound 2a],–,–,–,–,–,–,–,≤0.06 μg/mL^−1,0.98 μg/mL^−1,0.49 μg/mL^−1,0.98 μg/mL^−1,0.98 μg/mL^−1,1.95 μg/mL^−1,0.98 μg/mL^−1
COc1ccc(NNC(=O)c2ccc(F)cc2F)cc1 [Compound 1f],0.98 µg/mL,1.95 µg/mL,1.95 µg/mL,1.95 µg/mL,1.95 µg/mL,1.95 µg/mL,1.95 µg/mL,–,–,–,–,–,–,–
O=C(NNc1ccc(F)cc1F)c1nc(F)ccc1F [Compound 8g],0.98 µg/mL,1.95 µg/mL,3.9 µg/mL,0.98 µg/mL,1.95 µg/mL,1.95 µg/mL,1.95 µg/mL,–,–,–,–,–,–,–
O=C(NNc1cccc(F)c1)c1nc(F)ccc1F [Compound 8a],–,–,–,–,–,–,–,0.98 μg/mL^−1,0.98 μg/mL^−1,3.9 μg/mL^−1,0.98 μg/mL^−1,1.95 μg/mL^−1,1.95 μg/mL^−1,1.95 μg/mL^−1
COc1cccc(NNC(=O)c2ccccn2)c1 [Compound 2c],–,–,–,–,–,–,–,0.24 μg/mL^−1,0.98 μg/mL^−1,1.95 μg/mL^−1,0.98 μg/mL^−1,1.95 μg/mL^−1,1.95 μg/mL^−1,0.98 μg/mL^−1
O=C(NNc1cccc(F)c1)c1ccc(F)cc1F [Compound 1a],–,–,–,–,–,–,–,0.24 μg/mL^−1,1.95 μg/mL^−1,7.8 μg/mL^−1,1.95 μg/mL^−1,0.98 μg/mL^−1,3.9 μg/mL^−1,3.9 μg/mL^−1
COc1cccc(NNC(=O)c2ccc(F)cc2F)c1 [Compound 1c],0.98 µg/mL,1.95 µg/mL,3.9 µg/mL,1.95 µg/mL,3.9 µg/mL,3.9 µg/mL,3.9 µg/mL,–,–,–,–,–,–,–
O=C(NNc1ccc(F)cc1)c1ccc(Br)cn1 [Compound 4d],1.95 µg/mL,7.8 µg/mL,7.8 µg/mL,1.9 µg/mL,7.8 µg/mL,7.8 µg/mL,7.8 µg/mL,–,–,–,–,–,–,–
